From ChEMBL document CHEMBL4373665, “Discovery of new non-acidic lonazolac analogues with COX-2 selectivity as potent anti-inflammatory agents” (Medchemcomm, 2019) come the findings set out here.

For orientation: IC50 means the concentration that gives 50% inhibition. Usually inhibition in vivo stands for the share of the control response that was lost under treatment.

Series [1] is described as follows: Ulcerogenic activity in rat assessed as incidence of gastric ulceration at 50 mg/kg, sc qd for 4 days post 18 hrs fasting measured after 4 days relative to control. The series is classed as toxicity, organism-based. The settings on record: in vivo, 96 h.
In series [2] the target is Prostaglandin G/H synthase 1 (Homo sapiens, UniProt P23219). Briefly: Inhibition of human recombinant COX1 assessed as decrease in prostaglandin production using arachidonic acid as substrate pretreated for 15 mins followed by substrate addition and measured after 2 mins by enzyme immunoassay. The class given is single protein.
Chain of Prostaglandin G/H synthase 1 (P23219 whole entry): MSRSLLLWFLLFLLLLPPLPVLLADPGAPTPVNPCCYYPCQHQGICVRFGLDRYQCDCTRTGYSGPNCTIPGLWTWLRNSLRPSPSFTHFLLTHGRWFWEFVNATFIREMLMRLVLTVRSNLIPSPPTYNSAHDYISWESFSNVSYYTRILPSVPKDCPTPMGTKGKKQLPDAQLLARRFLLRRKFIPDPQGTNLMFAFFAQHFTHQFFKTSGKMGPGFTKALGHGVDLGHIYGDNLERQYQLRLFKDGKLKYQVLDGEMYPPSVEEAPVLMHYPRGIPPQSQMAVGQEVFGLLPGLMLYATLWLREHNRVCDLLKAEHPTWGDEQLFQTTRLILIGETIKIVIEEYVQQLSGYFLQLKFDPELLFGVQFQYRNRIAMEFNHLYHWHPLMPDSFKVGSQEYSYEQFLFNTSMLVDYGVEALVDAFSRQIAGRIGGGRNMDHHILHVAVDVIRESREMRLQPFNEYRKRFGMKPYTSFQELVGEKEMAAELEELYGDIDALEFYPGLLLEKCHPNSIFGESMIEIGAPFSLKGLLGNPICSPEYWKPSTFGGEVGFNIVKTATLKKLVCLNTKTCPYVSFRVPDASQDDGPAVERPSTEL
Series [3] can be described thus: Ulcerogenic activity in rat assessed as ulcer index at 50 mg/kg, sc qd for 4 days post 18 hrs fasting measured after 4 days. The class given is toxicity, organism-based. The following applies: in vivo, 96 h.
A short description of series [4]: Ulcerogenic activity in rat assessed as effect on gastric mucosa at 50 mg/kg by hematoxylin and eosin staining based assay. The class given is toxicity, organism-based. The following applies: in vivo.
The nature of series [5]: Hepatotoxicity in rat assessed as effect on portal veins at 50 mg/kg by hematoxylin and eosin staining based assay. The series is classed as toxicity, organism-based. The following applies: in vivo.
A short description of series [6]: Ulcerogenic activity in rat assessed as average severity of ulcers formed at 50 mg/kg, sc qd for 4 days post 18 hrs fasting measured after 4 days. The class given is toxicity, organism-based. The following applies: in vivo, 96 h.
The nature of series [7]: Ulcerogenic activity in rat assessed as effect on mucosal blood vessel at 50 mg/kg by hematoxylin and eosin staining based assay. The following applies: in vivo. The series is classed as toxicity, organism-based.
A short description of series [8]: Ulcerogenic activity in rat assessed as effect on gastric submucosa at 50 mg/kg by hematoxylin and eosin staining based assay. The class given is toxicity, organism-based. The settings on record: in vivo.
Series [9] can be described thus: Hepatotoxicity in rat assessed as effect on bile ducts at 50 mg/kg by hematoxylin and eosin staining based assay. The class given is toxicity, organism-based. The settings on record: in vivo.
Series [10] deals with T1, Prostaglandin G/H synthase 2 (Homo sapiens, UniProt P35354).
T1 sequence (P35354 whole entry): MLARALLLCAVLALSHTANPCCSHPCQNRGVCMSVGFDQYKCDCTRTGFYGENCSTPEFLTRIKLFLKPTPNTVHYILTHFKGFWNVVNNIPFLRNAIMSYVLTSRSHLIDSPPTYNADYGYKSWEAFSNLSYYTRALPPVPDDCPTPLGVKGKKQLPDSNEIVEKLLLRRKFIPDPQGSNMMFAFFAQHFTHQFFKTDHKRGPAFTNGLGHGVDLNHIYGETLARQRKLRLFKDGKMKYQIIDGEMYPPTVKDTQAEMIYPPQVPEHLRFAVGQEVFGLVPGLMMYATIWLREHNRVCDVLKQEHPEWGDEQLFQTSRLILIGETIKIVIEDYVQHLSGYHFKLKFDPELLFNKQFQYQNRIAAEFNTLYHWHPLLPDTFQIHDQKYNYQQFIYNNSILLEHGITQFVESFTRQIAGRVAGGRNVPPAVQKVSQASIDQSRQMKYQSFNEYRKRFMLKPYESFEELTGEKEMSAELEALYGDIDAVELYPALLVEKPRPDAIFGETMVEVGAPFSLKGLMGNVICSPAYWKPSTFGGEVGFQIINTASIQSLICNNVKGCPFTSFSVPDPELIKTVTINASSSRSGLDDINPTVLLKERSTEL
Nature of the series: Inhibition of human recombinant COX2 assessed as decrease in prostaglandin production using arachidonic acid as substrate pretreated for 15 mins followed by substrate addition and measured after 2 mins by enzyme immunoassay.

Series [11] deals with Rattus norvegicus. Briefly: Anti-inflammatory activity in albino rat model of carrageenan-induced paw edema assessed as inhibition of carrageenan-induced paw edema at 100 mg/kg, po administered as single dose prior to carrageenan challenge measured after 1 hr relative to control. The class given is functional. (Carrageenan injected into the paw causes an acute inflammation.)

Series [12] is described as follows: Nephrotoxicity in rat assessed as effect on proximal tubule at 50 mg/kg by hematoxylin and eosin staining based assay. The following applies: in vivo. The series is classed as toxicity, organism-based.
In series [13] the test system is Rattus norvegicus. Briefly: Anti-inflammatory activity in albino rat model of carrageenan-induced paw edema assessed as inhibition of carrageenan-induced paw edema at 100 mg/kg, po administered as single dose prior to carrageenan challenge measured after 3 hrs relative to control. The series is classed as functional.
A short description of series [14]: Hepatotoxicity in rat assessed as effect on central veins in liver at 50 mg/kg by hematoxylin and eosin staining based assay. The class given is toxicity, organism-based. The following applies: in vivo.
Series [15] is described as follows: Ulcerogenic activity in rat assessed as effect on parietal cells at 50 mg/kg by hematoxylin and eosin staining based assay. The series is classed as toxicity, organism-based. The settings on record: in vivo.
Series [16] can be described thus: Nephrotoxicity in rat assessed as effect on glomeruli at 50 mg/kg surrounded by Bowmann's capsule by hematoxylin and eosin staining based assay. The class given is toxicity, organism-based. The settings on record: in vivo.
Series [17] relates to Rattus norvegicus. Nature of the series: Anti-inflammatory activity in albino rat model of carrageenan-induced paw edema assessed as inhibition of carrageenan-induced paw edema at 100 mg/kg, po administered as single dose prior to carrageenan challenge measured after 12 hrs relative to control. The series is classed as functional.
Series [18] in a line: Ulcerogenic activity in rat assessed as average number of ulcers formed at 50 mg/kg, sc qd for 4 days post 18 hrs fasting measured after 4 days. The series is classed as toxicity, organism-based. The settings on record: in vivo, 96 h.
The subject of series [19] is Rattus norvegicus. Nature of the series: Anti-inflammatory activity in albino rat model of carrageenan-induced paw edema assessed as inhibition of carrageenan-induced paw edema at 100 mg/kg, po administered as single dose prior to carrageenan challenge measured after 4 hrs relative to control. The class given is functional.
The subject of series [20] is Rattus norvegicus. Briefly: Anti-inflammatory activity in albino rat model of carrageenan-induced paw edema assessed as inhibition of carrageenan-induced paw edema at 100 mg/kg, po administered as single dose prior to carrageenan challenge measured after 8 hrs relative to control. The series is classed as functional.
Series [21] is described as follows: Nephrotoxicity in rat assessed as effect on distal tubule at 50 mg/kg by hematoxylin and eosin staining based assay. The class given is toxicity, organism-based. The following applies: in vivo.
The species named for the next series is Homo sapiens. Briefly: Selectivity index, ratio of IC50 for human recombinant COX1 to IC50 for human recombinant COX2 using arachidonic acid as substrate.
A short description of series [22]: Hepatotoxicity in rat assessed as effect on hepatocytes in periportal area at 50 mg/kg by hematoxylin and eosin staining based assay. The class given is toxicity, organism-based. The settings on record: in vivo.

On to `S=c1nc(-c2ccc(Cl)cc2)cc(-c2cn(-c3ccccc3)nc2-c2ccc(OCc3ccccc3)cc2)[nH]1`, for which the Activity was 4% in [1]; “Toxic” in [4]; “Toxic” in series [5]; 1.2 in [6]; “Toxic” in [7]; “Toxic” in series [8]. Besides, the Activity entry in series [9] is “Toxic”; in series [12] it was “Toxic”; in series [14], “Toxic”; in [15], “Toxic”; in [16], “Toxic”; in series [18] it was 1.2. For the same compound, the Activity result in series [21] and in series [22] was “Toxic” in each case. The IC50 in series [2] is 7200 nM; in series [10] it was 1100 nM. Further, the UI in [3] was found to be 6.4. Also, the inhibition in vivo at 100 mg/kg in the series with Rattus norvegicus [11] was 42.2%; in the series on Rattus norvegicus [13], 54.4%; in the series on Rattus norvegicus [17] it was 15.5%; with Rattus norvegicus [19], 41.8%; in the series with Rattus norvegicus [20], 24.7%. Further, the Ratio IC50 in the series filed under Homo sapiens is 6.54.
As for `N#CC1=C(N)OC(c2ccccc2)=CC1c1cn(-c2ccccc2)nc1-c1ccc(OCc2ccccc2)cc1` (configuration not stated), the Activity was 4% in series [1]; “Toxic” in series [4]; “Toxic” in series [5]; 0.4 in series [6]; “Toxic” in series [7]; “Toxic” in series [8]. Moreover, the Activity entry in series [9] is reported as “Toxic”; in [12] it was “Toxic”; in [14], “Toxic”; in series [15], “Toxic”; in series [16] it was “Toxic”; in series [18], 0.8. Also, the Activity entry in [21] and in [22] was “Toxic” throughout. In addition, the IC50 in series [2] was determined as 4020 nM; in [10], 720 nM. Besides, in [3], the UI stood at 5.2. For the same compound, the inhibition in vivo at 100 mg/kg with Rattus norvegicus [11] was determined as 69%; in the series with Rattus norvegicus [13], 59.5%; in the series with Rattus norvegicus [17], 28.2%; with Rattus norvegicus [19], 54.5%; in the series on Rattus norvegicus [20], 42.9%. Besides, the Ratio IC50 in the series filed under Homo sapiens stood at 5.58.
As for `Clc1ccc(-c2cc(-c3cn(-c4ccccc4)nc3-c3ccc(OCc4ccccc4)cc3)on2)cc1`, the Activity is given as 6% in series [1]; “Toxic” in series [4]; “Toxic” in [5]; 1.2 in series [6]; “Toxic” in series [7]; “Toxic” in series [8]. The Activity entry in [9] was “Toxic”; in series [12], “Toxic”; in series [14] it was “Toxic”; in [15], “Toxic”; in series [16], “Toxic”; in [18], 1.2. In addition, the Activity entry in series [21] and in series [22] was “Toxic” in each case. Further, the half-inhibitory concentration (IC50) is 2890 nM in [2] and 1250 nM in series [10]. In addition, the UI in [3] is listed as 8.4. The inhibition in vivo at 100 mg/kg was 69.8% in the series with Rattus norvegicus [11]; 70.9% in the series with Rattus norvegicus [13]; 45% with Rattus norvegicus [17]; 42.9% in the series on Rattus norvegicus [19]; 48.7% in the series with Rattus norvegicus [20]. Besides, the Ratio IC50 in the series listed under Homo sapiens came to 2.31.
Take `Nc1nc(-c2ccccc2)cc(-c2cn(-c3ccccc3)nc2-c2ccc(OCc3ccccc3)cc2)n1`: the Activity is 2% in [1]; “Toxic” in series [4]; “Toxic” in series [5]; 0.6 in [6]; “Toxic” in series [7]; “Toxic” in series [8]. The Activity entry in series [9] is reported as “Toxic”; in series [12] it was “Toxic”; in series [14], “Toxic”; in [15], “Toxic”; in series [16] it was “Toxic”; in series [18] it was 0.6. The Activity entry in [21] and in [22] was “Toxic” each time. The IC50 came to 16500 nM in series [2] and 2800 nM in series [10]. In [3], the UI amounted to 3.2. Moreover, the inhibition in vivo at 100 mg/kg with Rattus norvegicus [11] was determined as 82%; with Rattus norvegicus [13] it was 74.4%; with Rattus norvegicus [17], 33.6%; with Rattus norvegicus [19], 83.9%; in the series with Rattus norvegicus [20] it was 40.2%. Further, the Ratio IC50 in the series listed under Homo sapiens amounted to 5.89.
For the compound `Cc1ccc(-c2cc(C(F)(F)F)nn2-c2ccc(S(N)(=O)=O)cc2)cc1` [CELECOXIB], the Activity is recorded as 2% in [1]; “Toxic” in series [4]; “Toxic” in series [5]; 0.6 in series [6]; “Toxic” in [7]; “Toxic” in series [8]. The Activity result in series [9] is given as “Toxic”; in series [12] it was “Toxic”; in series [14], “Toxic”; in series [15], “Toxic”; in series [16], “Toxic”; in series [18], 0.6. In addition, the Activity entry in [21] and in series [22] was “Toxic” in each case. The UI in series [3] amounted to 3.2. In addition, the inhibition in vivo at 100 mg/kg came out at 56.1% with Rattus norvegicus [11]; 58.5% with Rattus norvegicus [13]; 34.6% in the series on Rattus norvegicus [17]; 48.1% with Rattus norvegicus [19]; 44.9% in the series with Rattus norvegicus [20].
With `COc1ccc2c(c1)c(CC(=O)O)c(C)n2C(=O)c1ccc(Cl)cc1` [INDOMETHACIN], the Activity in series [1] is recorded as 10%; in [4], “Toxic”; in series [5] it was “Toxic”; in series [6] it was 2.6; in [7] it was “Toxic”; in series [8] it was “Toxic”. Also, the Activity result is listed as “Toxic” in [9]; “Toxic” in series [12]; “Toxic” in series [14]; “Toxic” in [15]; “Toxic” in series [16]; 5 in [18]. The Activity result in series [21] and in [22] was “Toxic” in each case. In series [3], the UI worked out at 17.6. Further, the inhibition in vivo at 100 mg/kg was determined as 80.2% with Rattus norvegicus [11]; 79.8% with Rattus norvegicus [13]; 55.6% in the series with Rattus norvegicus [17]; 65.2% with Rattus norvegicus [19]; 62.5% in the series with Rattus norvegicus [20].
